Laboratory results reported in patent publication US6770659B2, “Benzoyl piperidine compounds” (SK Corporation, priority 2002, dated 2004).
Where two headings read alike, the source gives them in different places.

Test system: climbing behavior induced by apomorphine in mice
Test: Climbing Mouse Assay (anti-climbing behavior test)
Format: in vivo
Conditions: ICR CD strain male mice, apomorphine challenge; for ED50: Mus musculus
Text: This activity was examined through the anti-climbing behavior test, i.e. the test for suppressing the climbing behavior induced by apomorphine in mice. A designated amount of the test compound was intraperitoneally or orally administered to several groups of ICR CD strain male mice (body weight, 20 to 25 g; one group, 6 mice), and each of the animals was charged in an individual column cage of 12 cm in diameter and 14 cm in height having metal poles (each pole, 2 mm in diameter) vertically installed and arranged along the periphery with interval of 1 cm.
Compounds to be tested for antipsychotic activity are injected intraperitoneally or given orally at various time intervals, e.g. 30 minutes, 60 minutes, etc., prior to the apomorphine challenge at a screening dose of 0.1-60 mg/kg.
For evaluation of climbing, 3 readings are taken at 10, 20 and 30 minutes after apomorphine administration according to the following scale:
Mice consistently climbing before the injection of apomorphine will be discarded.
With full-developed apomorphine climbing, the animals are hanging on to the cage walls, rather motionless, over longer periods of time. By contrast, climbing due to mere motor stimulation usually only lasts a few seconds.
The climbing scores are individually totaled (maximal score: 12 per mouse over 3 readings) and the total score of the control group (vehicle intraperitoneally-apomorphine subcutaneously) is set to 100%. ED50 values with 95% confidence limits, calculated by a linear regression analysis, of some of the compounds of the instant invention as well as a standard antipsychotic agent are presented in Table I.

[1] = intraperitoneal administration, read-out: Climbing Mouse Assay ED50 i.p.
[2] = oral administration, read-out: Climbing Mouse Assay ED50 p.o. (converted)

SMILES | ED50 [1] [mg/kg] | ED50 [2] [mg/kg] | Climbing Mouse Assay ED50 i.p. (intraperitoneal administration) [mg/kg] | Climbing Mouse Assay ED50 p.o. (oral administration) [mg/kg]
CN1CCN(C2=Nc3cc(Cl)ccc3Nc3ccccc32)CC1 [Clozapine, reference compound] | 6.3 | 13.5 | – | –
CC(C)OC(=O)OC(CN1CCC(C(=O)c2ccc(F)cc2)CC1)c1cccc(Cl)c1 (centres unmarked) [Carbonic acid 1-(3-chloro-phenyl)-2-[4-(4-fluoro-benzoyl)-piperidin-1-yl]-ethyl ester isopropyl ester] | 6.2 | – | – | –
Cl.O=C(NCc1ccccc1)OC(CN1CCC(C(=O)c2ccc(F)cc2)CC1)c1ccccc1 (centres unmarked) [Benzyl-carbamic acid 2-[4-(4-fluoro-benzoyl)-piperidin-1-yl]-1-phenyl-ethyl ester; hydrochloride] | 2.2 | 7.1 | – | –
Cc1nc2n(c(=O)c1CCN1CCC(c3noc4cc(F)ccc34)CC1)CCCC2 [Risperidone, reference compound] | 0.11 | 0.29 | – | –
O=C(c1ccc(F)cc1)C1CCN(CC(COc2ccccc2)OC(=O)N2CCCCCC2)CC1 (centres unmarked) [Azepane-1-carboxylic acid 1-[4-(4-fluoro-benzoyl)-piperidin-1-ylmethyl]-2-phenoxy-ethyl ester] | 1.5 | – | – | –
Cl.NC(=O)OC(CN1CCC(C(=O)c2ccc(F)cc2)CC1)c1cccc(Cl)c1 (centres unmarked) [Carbamic acid 1-(3-chloro-phenyl)-2-[4-(4-fluoro-benzoyl)-piperidin-1-yl]-ethyl ester; hydrochloride] | 0.56 | 0.94 | – | –
CO[C@H](CN1CCC(C(=O)c2ccc(F)cc2)CC1)c1ccc(C(C)C)cc1 [(S)-(4-Fluoro-phenyl)-{1-[2-(4-isopropyl-phenyl)-2-methoxy-ethyl]-piperidin-4-yl}-methanone] | 0.13 | 0.09 | – | –
Cl.NC(=O)OC(CN1CCC(C(=O)c2ccc(F)cc2)CC1)c1ccc(Cl)c(Cl)c1 (centres unmarked) [Carbamic acid 1-(3,4-dichloro-phenyl)-2-[4-(4-fluoro-benzoyl)-piperidin-1-yl]-ethyl ester; hydrochloride] | 0.32 | 0.48 | – | –
CO[C@@H](CN1CCC(C(=O)c2ccc(F)cc2)CC1)c1ccc([N+](=O)[O-])cc1 [(R)-(4-Fluoro-phenyl)-{1-[2-methoxy-2-(4-nitro-phenyl)-ethyl]-piperidin-4-yl}-methanone] | 24.2 | – | – | –
Cc1ccc(C(CN2CCC(C(=O)c3ccc(F)cc3)CC2)n2cncn2)cc1C (centres unmarked) [{1-[2-(3,4-Dimethyl-phenyl)-2-[1,2,4]triazol-1-yl-ethyl]-piperidin-4-yl}-(4-fluoro-phenyl)-methanone] | 4.5 | 16.6 | – | –
CO[C@H](CN1CCC(C(=O)c2ccc(F)cc2)CC1)c1ccc([N+](=O)[O-])cc1 [(S)-(4-Fluoro-phenyl)-{1-[2-methoxy-2-(4-nitro-phenyl)-ethyl]-piperidin-4-yl}-methanone] | 4.5 | 16.9 | – | –
COC(CN1CCC(C(=O)c2ccc(F)cc2)CC1)c1ccc(C(C)C)cc1 (centres unmarked) [(4-Fluoro-phenyl)-{1-[2-(4-isopropyl-phenyl)-2-methoxy-ethyl]-piperidin-4-yl}-methanone] | 0.17 | 0.41 | – | –
CC(C)c1ccc(C(CN2CCC(C(=O)c3ccc(F)cc3)CC2)n2cncn2)cc1.Cl.Cl.Cl (centres unmarked) [(4-Fluoro-phenyl)-{1-[2-(4-isopropyl-phenyl)-2-[1,2,4]triazoyl-1-yl-ethyl]-piperidin-4-yl}-methanone trihydrochloride] | – | – | 3.1 | 4.7
CCc1ccc([C@@H](CN2CCC(C(=O)c3ccc(F)cc3)CC2)OC)cc1 [(S)-{1-[2-(4-Ethyl-phenyl)-2-methoxy-ethyl]-piperidin-4-yl}-(4-fluoro-phenyl)-methanone] | 0.31 | 1.2 | – | –
COC(CN1CCC(C(=O)c2ccc(F)cc2)CC1)c1ccc([N+](=O)[O-])cc1.Cl (centres unmarked) [(4-Fluoro-phenyl)-{1-[2-methoxy-2-(4-nitro-phenyl)-ethyl]-piperidin-4yl}-methanone; hydrochloride] | 5.9 | 51.2 | – | –
Cl.NC(=O)OC(CN1CCC(C(=O)c2ccc(F)cc2)CC1)c1ccccc1 (centres unmarked) [Carbamic acid 2-[4-(4-fluoro-benzoyl)-piperidin-1-yl]-1-phenyl-ethyl ester; hydrochloride] | 4.8 | 9.7 | – | –
Cl.NC(=O)O[C@H](CN1CCC(C(=O)c2ccc(F)cc2)CC1)c1ccccc1 [(S)-Carbamic acid 2-[4-(4-fluoro-benzoyl)-piperidin-1-yl]-1-phenyl-ethyl ester; hydrochloride] | 0.96 | 4.3 | – | –
Cl.NC(=O)OC(COc1ccccc1)CN1CCC(C(=O)c2ccc(F)cc2)CC1 (centres unmarked) [Carbamic acid 1-[4-(4-fluoro-benzoyl)-piperidin-1-ylmethyl]-2-phenoxy-ethyl ester; hydrochloride] | 2 | 8.5 | – | –
CCc1ccc(C(CN2CCC(C(=O)c3ccc(F)cc3)CC2)OC(=O)OC)cc1 (centres unmarked) [Carbonic acid 1-(4-ethyl-phenyl)-2-[4-(4-fluoro-benzoyl)-piperidin-1-yl]-ethyl ester methyl ester] | 2.4 | 7.6 | – | –
Cl.NC(=O)OC(CN1CCC(C(=O)c2ccc(F)cc2)CC1)c1ccc(C(F)(F)F)cc1 (centres unmarked) [Carbamic acid 2-[4-(4-fluoro-benzoyl)-piperidin-1-yl]-1-(4-trifluoromethyl-phenyl)-ethyl ester; hydrochloride] | 1.8 | – | – | –
CCOC(CN1CCC(C(=O)c2ccc(F)cc2)CC1)c1ccc([N+](=O)[O-])cc1 (centres unmarked) [{1-[2-Ethoxy-2-(4-nitro-phenyl)-ethyl]-piperidin-4-yl}-(4-fluoro-1phenyl)-methanone] | – | – | 4.16 | –
Cl.NC(=O)OC(CN1CCC(C(=O)c2ccc(F)cc2)CC1)c1cccc([N+](=O)[O-])c1 (centres unmarked) [Carbamic acid 2-[4-(4-fluoro-benzoyl)-piperidin-1-yl]-1-(3-nitro-phenyl)-ethyl ester; hydrochloride] | 2.6 | – | – | –
Cl.NC(=O)O[C@@H](CN1CCC(C(=O)c2ccc(F)cc2)CC1)c1ccccc1 [(R)-Carbamic acid 2-[4-(4-fluoro-benzoyl)-piperidin-1-yl]-1-phenyl-ethyl ester; hydrochloride] | 17.8 | 46.2 | – | –
CCc1ccc(C(CN2CCC(C(=O)c3ccc(F)cc3)CC2)OC)cc1 (centres unmarked) [{1-[2-(4-Ethyl-phenyl)-2-methoxy-ethyl]-piperidin-4-yl}-(4-fluoro-phenyl)-methanone] | 0.87 | – | – | –
